Data from the NIST ThermoML archive (doi:10.1007/s10765-006-0051-4).

Assay: xn = mol fraction of the nth substance listed
Details: Gas, Oscillating disk viscometry

FC(F)C(F)(F)F [pentafluoroethane] + CCC
Details | viscosity [mPa·s]
373.15 K, 3429.9 kPa, x1 = 0.5011 | 0.01593
373.15 K, 3613.1 kPa, x1 = 0.5011 | 0.01624
373.15 K, 3684.6 kPa, x1 = 0.7503 | 0.01798
373.15 K, 3737.3 kPa, x1 = 0.5011 | 0.01642
373.15 K, 3960.9 kPa, x1 = 0.5011 | 0.01685
373.15 K, 3969.4 kPa, x1 = 0.7503 | 0.01855
373.15 K, 4171.6 kPa, x1 = 0.5011 | 0.0173
373.15 K, 4227.4 kPa, x1 = 0.7503 | 0.01913
373.15 K, 4377 kPa, x1 = 0.5011 | 0.01777
373.15 K, 4411 kPa, x1 = 0.7503 | 0.01964
373.15 K, 4576.1 kPa, x1 = 0.5011 | 0.01833
373.15 K, 4607.7 kPa, x1 = 0.7503 | 0.02019
373.15 K, 4760.3 kPa, x1 = 0.5011 | 0.01889
373.15 K, 4816.2 kPa, x1 = 0.7503 | 0.02092
373.15 K, 4878.3 kPa, x1 = 0.5011 | 0.01931
373.15 K, 5001.8 kPa, x1 = 0.7503 | 0.0217
373.15 K, 5157.2 kPa, x1 = 0.7503 | 0.02229
373.15 K, 5305.9 kPa, x1 = 0.7503 | 0.02305
398.15 K, 101.4 kPa, x1 = 0.5011 | 0.01447
398.15 K, 101.8 kPa, x1 = 0.7503 | 0.01589
398.15 K, 200.6 kPa, x1 = 0.5011 | 0.01454
398.15 K, 262.5 kPa, x1 = 0.7503 | 0.01594
398.15 K, 348.4 kPa, x1 = 0.5011 | 0.01457
398.15 K, 488.6 kPa, x1 = 0.7503 | 0.01602
398.15 K, 541 kPa, x1 = 0.5011 | 0.01463
398.15 K, 733.4 kPa, x1 = 0.7503 | 0.01606
398.15 K, 783.2 kPa, x1 = 0.5011 | 0.01467
398.15 K, 977 kPa, x1 = 0.7503 | 0.01615
398.15 K, 1028.7 kPa, x1 = 0.5011 | 0.01479
398.15 K, 1218.3 kPa, x1 = 0.7503 | 0.01622
398.15 K, 1272.7 kPa, x1 = 0.5011 | 0.01488
398.15 K, 1476.6 kPa, x1 = 0.7503 | 0.01635
398.15 K, 1520 kPa, x1 = 0.5011 | 0.01497
398.15 K, 1712.5 kPa, x1 = 0.7503 | 0.01647
398.15 K, 1748.1 kPa, x1 = 0.5011 | 0.01511
398.15 K, 1944.3 kPa, x1 = 0.7503 | 0.01666
398.15 K, 2037 kPa, x1 = 0.5011 | 0.01521
398.15 K, 2176.8 kPa, x1 = 0.7503 | 0.01672
398.15 K, 2274.1 kPa, x1 = 0.5011 | 0.0154
398.15 K, 2388.9 kPa, x1 = 0.7503 | 0.01694
398.15 K, 2490.3 kPa, x1 = 0.5011 | 0.01548
398.15 K, 2622.4 kPa, x1 = 0.7503 | 0.01715
398.15 K, 2777.4 kPa, x1 = 0.5011 | 0.01568
398.15 K, 2888.9 kPa, x1 = 0.7503 | 0.01734
398.15 K, 3059.7 kPa, x1 = 0.5011 | 0.01592
398.15 K, 3178.3 kPa, x1 = 0.7503 | 0.01765
398.15 K, 3336.8 kPa, x1 = 0.5011 | 0.01626
398.15 K, 3405.7 kPa, x1 = 0.7503 | 0.01794
398.15 K, 3609.9 kPa, x1 = 0.5011 | 0.0165
398.15 K, 3624.9 kPa, x1 = 0.7503 | 0.01817
398.15 K, 3822.7 kPa, x1 = 0.7503 | 0.01844
398.15 K, 3842.8 kPa, x1 = 0.5011 | 0.01681
398.15 K, 3992.9 kPa, x1 = 0.7503 | 0.01868
398.15 K, 4062.4 kPa, x1 = 0.5011 | 0.01705
398.15 K, 4225.4 kPa, x1 = 0.7503 | 0.01902
398.15 K, 4329.6 kPa, x1 = 0.5011 | 0.01744
398.15 K, 4523.9 kPa, x1 = 0.7503 | 0.01947
398.15 K, 4652.3 kPa, x1 = 0.5011 | 0.01792
398.15 K, 4690.7 kPa, x1 = 0.7503 | 0.01983
398.15 K, 4804.6 kPa, x1 = 0.7503 | 0.02002
398.15 K, 5014.1 kPa, x1 = 0.5011 | 0.01853
398.15 K, 5040.9 kPa, x1 = 0.7503 | 0.02051
398.15 K, 5179.6 kPa, x1 = 0.5011 | 0.01885
398.15 K, 5224.5 kPa, x1 = 0.7503 | 0.02087
398.15 K, 5374.2 kPa, x1 = 0.5011 | 0.01934
398.15 K, 5462.4 kPa, x1 = 0.7503 | 0.0215
398.15 K, 5801.5 kPa, x1 = 0.7503 | 0.0224
423.15 K, 101.3 kPa, x1 = 0.5011 | 0.01525
423.15 K, 102.4 kPa, x1 = 0.7503 | 0.01671
423.15 K, 194.6 kPa, x1 = 0.7503 | 0.01672
423.15 K, 200.5 kPa, x1 = 0.5011 | 0.01531
423.15 K, 336.4 kPa, x1 = 0.7503 | 0.01676
423.15 K, 390.6 kPa, x1 = 0.5011 | 0.01537
423.15 K, 570.1 kPa, x1 = 0.7503 | 0.01682
423.15 K, 586.2 kPa, x1 = 0.5011 | 0.01537
423.15 K, 781.9 kPa, x1 = 0.5011 | 0.01543
423.15 K, 812.9 kPa, x1 = 0.7503 | 0.01692
423.15 K, 960.2 kPa, x1 = 0.5011 | 0.01542
423.15 K, 1055.8 kPa, x1 = 0.7503 | 0.01696
423.15 K, 1175.7 kPa, x1 = 0.5011 | 0.01552
423.15 K, 1254.9 kPa, x1 = 0.7503 | 0.01706
423.15 K, 1421.7 kPa, x1 = 0.5011 | 0.01565
423.15 K, 1448.9 kPa, x1 = 0.7503 | 0.01715
423.15 K, 1640 kPa, x1 = 0.7503 | 0.01724
423.15 K, 1658.8 kPa, x1 = 0.5011 | 0.01573
423.15 K, 1898.5 kPa, x1 = 0.5011 | 0.01584
423.15 K, 1906.4 kPa, x1 = 0.7503 | 0.0174
423.15 K, 2128.2 kPa, x1 = 0.7503 | 0.01752
423.15 K, 2142.2 kPa, x1 = 0.5011 | 0.01598
423.15 K, 2375.9 kPa, x1 = 0.7503 | 0.01766
423.15 K, 2381.7 kPa, x1 = 0.5011 | 0.01613
423.15 K, 2575.8 kPa, x1 = 0.5011 | 0.01623
423.15 K, 2591.5 kPa, x1 = 0.7503 | 0.01781
423.15 K, 2903.1 kPa, x1 = 0.5011 | 0.01643
423.15 K, 2919.3 kPa, x1 = 0.7503 | 0.01808
423.15 K, 3148.8 kPa, x1 = 0.5011 | 0.01663
423.15 K, 3160.1 kPa, x1 = 0.7503 | 0.01824
423.15 K, 3289.3 kPa, x1 = 0.7503 | 0.01836
423.15 K, 3412.8 kPa, x1 = 0.5011 | 0.01685
423.15 K, 3552.1 kPa, x1 = 0.7503 | 0.01859
423.15 K, 3651.4 kPa, x1 = 0.5011 | 0.01705
423.15 K, 3813.6 kPa, x1 = 0.7503 | 0.01886
423.15 K, 3903.9 kPa, x1 = 0.5011 | 0.01729
423.15 K, 4061.5 kPa, x1 = 0.7503 | 0.01916
423.15 K, 4138.6 kPa, x1 = 0.5011 | 0.01756
423.15 K, 4298.5 kPa, x1 = 0.7503 | 0.01944
423.15 K, 4492.6 kPa, x1 = 0.7503 | 0.01962
423.15 K, 4533.7 kPa, x1 = 0.5011 | 0.01792
423.15 K, 4689.8 kPa, x1 = 0.7503 | 0.01988
423.15 K, 4822.7 kPa, x1 = 0.5011 | 0.01823
423.15 K, 4902.5 kPa, x1 = 0.7503 | 0.02023
423.15 K, 5070 kPa, x1 = 0.7503 | 0.02042
423.15 K, 5073.7 kPa, x1 = 0.5011 | 0.01858
423.15 K, 5285.8 kPa, x1 = 0.7503 | 0.02077
423.15 K, 5357.3 kPa, x1 = 0.5011 | 0.01897
423.15 K, 5493.3 kPa, x1 = 0.7503 | 0.02108
423.15 K, 5672.2 kPa, x1 = 0.7503 | 0.02139
423.15 K, 5701.1 kPa, x1 = 0.5011 | 0.01947
423.15 K, 5887.3 kPa, x1 = 0.7503 | 0.02175
423.15 K, 6049.1 kPa, x1 = 0.5011 | 0.02
423.15 K, 6270.6 kPa, x1 = 0.5011 | 0.02038
423.15 K, 6494.5 kPa, x1 = 0.5011 | 0.0208
423.15 K, 6710.2 kPa, x1 = 0.5011 | 0.02129
